What was measured:
[1] = tested on: normal NK cells expanded with K562-aAPC; test: drug sensitivity score (DSS) (DSS units); higher = more sensitive; extreme values may be limits of the assay; conditions: 72 h; IL-2 2.5 ng/mL
Procedure: (§1)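 Drug sensitivity and resistance testing on K562-aAPC-expanded normal NK cells: 5 concentrations (10-fold steps over a 10,000-fold range), 72 h at 37 °C, viability by CellTiter-Glo normalised to DMSO and benzethonium chloride controls; DSS from the fitted curve.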

[2] = tested on: normal primary NK cells, pool 3 (3 donors) (IL-2 2.5 ng/mL); test: as above; conditions: 72 h
YT (IL-2 2.5 ng/mL) [3] = test: as above; conditions: 72 h
KAI3 (IL-2 2.5 ng/mL) [4] = test: as above; conditions: 72 h
NKL (IL-2 2.5 ng/mL) [5] = test: as above; conditions: 72 h
IMC-1 (IL-2 20 ng/mL) [6] = test: as above; conditions: 72 h
DERL-7 (IL-2 2.5 ng/mL) [7] = test: as above; conditions: 72 h
[8] = tested on: normal primary NK cells, pool 1 (3 donors), resting (IL-2 0 ng/mL); test: as above; conditions: 72 h
NK-92 (IL-2 2.5 ng/mL) [9] = test: as above; conditions: 72 h
NK-YS (IL-2 2.5 ng/mL) [10] = test: as above; conditions: 72 h
KHYG-1 (IL-2 2.5 ng/mL) [11] = test: as above; conditions: 72 h
SNK-6 (IL-2 2.5 ng/mL) [12] = test: as above; conditions: 72 h
[13] = tested on: normal primary NK cells, pool 1 (3 donors) (IL-2 2.5 ng/mL); test: as above; conditions: 72 h
[14] = tested on: normal primary NK cells, pool 2 (3 donors) (IL-2 2.5 ng/mL); test: as above; conditions: 72 h
[15] = tested on: normal primary NK cells, pool 3 (3 donors) (IL-2 2.5 ng/mL); test: percent inhibition of viability; higher = more inhibition; conditions: 72 h
YT (IL-2 2.5 ng/mL) [16] = test: as above; conditions: 72 h
KAI3 (IL-2 2.5 ng/mL) [17] = test: as above; conditions: 72 h
NKL (IL-2 2.5 ng/mL) [18] = test: as above; conditions: 72 h
IMC-1 (IL-2 20 ng/mL) [19] = test: as above; conditions: 72 h
DERL-7 (IL-2 2.5 ng/mL) [20] = test: as above; conditions: 72 h
[21] = tested on: normal primary NK cells, pool 1 (3 donors), resting (IL-2 0 ng/mL); test: as above; conditions: 72 h
NK-92 (IL-2 2.5 ng/mL) [22] = test: as above; conditions: 72 h
NK-YS (IL-2 2.5 ng/mL) [23] = test: as above; conditions: 72 h
KHYG-1 (IL-2 2.5 ng/mL) [24] = test: as above; conditions: 72 h
SNK-6 (IL-2 2.5 ng/mL) [25] = test: as above; conditions: 72 h
[26] = tested on: normal primary NK cells, pool 1 (3 donors) (IL-2 2.5 ng/mL); test: as above; conditions: 72 h
[27] = tested on: normal primary NK cells, pool 2 (3 donors) (IL-2 2.5 ng/mL); test: as above; conditions: 72 h
[28] = tested on: normal NK cells expanded with K562-aAPC; test: as above; conditions: 72 h, IL-2 2.5 ng/mL
Procedure: as §1

CN(C)CCOc1ccc(/C(=C(/CCCl)c2ccccc2)c2ccccc2)cc1 [Toremifene] (max concentration tested 10000 nM)
Conditions | drug sensitivity score
DERL-7 (IL-2 2.5 ng/mL) [7] | 5.52
IMC-1 (IL-2 20 ng/mL) [6] | 0.01
KAI3 (IL-2 2.5 ng/mL) [4] | 4.76
KHYG-1 (IL-2 2.5 ng/mL) [11] | 3.24
NK-92 (IL-2 2.5 ng/mL) [9] | 3.98
NK-YS (IL-2 2.5 ng/mL) [10] | 0.96
NKL (IL-2 2.5 ng/mL) [5] | 2.74
SNK-6 (IL-2 2.5 ng/mL) [12] | 6.85
YT (IL-2 2.5 ng/mL) [3] | 2.42
[1] | 0.54
[2] | 1.64
[8] | 5.83
[13] | 2.96
[14] | 3.11

percent inhibition of viability [%]
Conditions | 1 nM | 10 nM | 100 nM | 1000 nM | 10000 nM
DERL-7 (IL-2 2.5 ng/mL) [20] | 1.82 | 1.64 | 5.42 | 24.2 | 53.5
IMC-1 (IL-2 20 ng/mL) [19] | -0.16 | 2.16 | -3.63 | 1.2 | 10.6
KAI3 (IL-2 2.5 ng/mL) [17] | 8.55 | 1.95 | 5.19 | 8.64 | 60.7
KHYG-1 (IL-2 2.5 ng/mL) [24] | -7.33 | 4.52 | -9.46 | 6.72 | 42
NK-92 (IL-2 2.5 ng/mL) [22] | -4.85 | -1.12 | 2.18 | 6.43 | 54.2
NK-YS (IL-2 2.5 ng/mL) [23] | 1.32 | -4.28 | -2.7 | -0.4 | 25.6
NKL (IL-2 2.5 ng/mL) [18] | 7.08 | 8.77 | -8.23 | 8.2 | 32.7
SNK-6 (IL-2 2.5 ng/mL) [25] | 13 | 30.5 | -2.4 | 28.2 | 29
YT (IL-2 2.5 ng/mL) [16] | -5.23 | 2.7 | -3.67 | 5.54 | 33
[15] | -2.58 | -5.78 | 0.52 | 5.83 | 23.4
[21] | -10.2 | -1.02 | 4.14 | 7.87 | 82.2
[26] | -5.3 | -17.6 | -3 | -8.46 | 64.3
[27] | -4.96 | -0.07 | -1.79 | 3.55 | 49
[28] | -7.54 | -7.98 | -6.66 | -5.37 | 22.4

Cc1cc(C)c(/C=C2\C(=O)Nc3ccccc32)[nH]1 [Semaxanib] (max concentration tested 10000 nM)
Conditions | drug sensitivity score
DERL-7 (IL-2 2.5 ng/mL) [7] | 0
IMC-1 (IL-2 20 ng/mL) [6] | 0
KAI3 (IL-2 2.5 ng/mL) [4] | 0.08
KHYG-1 (IL-2 2.5 ng/mL) [11] | 0
NK-92 (IL-2 2.5 ng/mL) [9] | 0
NK-YS (IL-2 2.5 ng/mL) [10] | 0.03
NKL (IL-2 2.5 ng/mL) [5] | 0
SNK-6 (IL-2 2.5 ng/mL) [12] | 0
YT (IL-2 2.5 ng/mL) [3] | 0
[1] | 0
[2] | 0
[8] | 0
[13] | 0
[14] | 0

percent inhibition of viability [%]
Conditions | 1 nM | 10 nM | 100 nM | 1000 nM | 10000 nM
DERL-7 (IL-2 2.5 ng/mL) [20] | -12.8 | -10.6 | -9.72 | -14.2 | -12.3
IMC-1 (IL-2 20 ng/mL) [19] | -3.23 | 1.84 | -5.66 | -0.69 | -8.53
KAI3 (IL-2 2.5 ng/mL) [17] | -2.48 | -0.88 | 2.8 | 17.6 | 4.62
KHYG-1 (IL-2 2.5 ng/mL) [24] | -1.36 | 0.11 | 0.12 | 6.34 | 1.2
NK-92 (IL-2 2.5 ng/mL) [22] | -9.95 | -0.12 | 2.69 | -5.85 | -9.23
NK-YS (IL-2 2.5 ng/mL) [23] | -0.44 | 2.71 | 2.82 | 11.1 | 7.36
NKL (IL-2 2.5 ng/mL) [18] | -13.9 | -12.4 | -11.4 | -6.8 | -21.5
SNK-6 (IL-2 2.5 ng/mL) [25] | 11.5 | 16.6 | -2.4 | -25 | -71.7
YT (IL-2 2.5 ng/mL) [16] | 1.76 | -2.52 | 0.26 | 5.87 | -1.2
[15] | -10.1 | -7.93 | -13.2 | -15.4 | -11
[21] | -26.7 | -24.9 | -16.6 | -29.6 | -4.81
[26] | -10.6 | -9.74 | -0.67 | -9.25 | -0.4
[27] | -8.9 | -5 | -12.5 | -15.6 | 0.7
[28] | -3.94 | -4.89 | -0.87 | -2.28 | -6.44
